According to the supplement of paper PMC11061612:

Legend:
Test in all cases: combination Emax (second highest fraction inhibited in the dose matrix, 72 h); higher = more inhibition; extreme values may be limits of the assay
[1] = tested on: BICR22 (Oral Cavity Carcinoma)
Method in brief: (§1)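 After 24 hours at 37°C and 5% CO2 in 1536-well plates, cells in DMEM/F12 or RPMI plus 10% FBS received two-drug dose matrices for 72 hours. Viability came from CellTiter-Glo 2.0 luminescence and was scaled as inhibition, anchored at 0 by vehicle wells and at 1 by blank wells. Combination Emax is taken as the second-highest inhibition in the matrix, and Bliss excess as the observed combination effect less EA + EB − EA·EB, with EA and EB the single-agent effects.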

[2] = tested on: CAPAN-2 (Pancreatic Carcinoma)
Method in brief: as §1

[3] = tested on: CCK-81 (Colorectal Carcinoma)
Method in brief: as §1

[4] = tested on: COLO-320-HSR (Colorectal Carcinoma)
Method in brief: as §1

[5] = tested on: ECC10 (Gastric Carcinoma)
Method in brief: as §1

FU97 (Gastric Carcinoma) = tested on: FU97 (Gastric Carcinoma)
Method in brief: as §1

[6] = tested on: HCC1954 (Breast Carcinoma)
Method in brief: as §1

[7] = tested on: KARPAS-422 (B-Cell Non-Hodgkin's Lymphoma)
Method in brief: as §1

LN-405 (Glioblastoma) = tested on: LN-405 (Glioblastoma)
Method in brief: as §1

[8] = tested on: NCI-H1581 (Non-Small Cell Lung Carcinoma)
Method in brief: as §1

[9] = tested on: NCI-H1666 (Lung Adenocarcinoma)
Method in brief: as §1

[10] = tested on: NCI-H2066 (Squamous Cell Lung Carcinoma)
Method in brief: as §1

NCI-H2591 (Mesothelioma) = tested on: NCI-H2591 (Mesothelioma)
Method in brief: as §1

[11] = tested on: NCI-H64 (Small Cell Lung Carcinoma)
Method in brief: as §1

NY (Osteosarcoma) = tested on: NY (Osteosarcoma)
Method in brief: as §1

[12] = tested on: ONS-76 (Other Solid Carcinomas)
Method in brief: as §1

[13] = tested on: PANC-10-05 (Pancreatic Carcinoma)
Method in brief: as §1

[14] = tested on: TT (Thyroid Gland Carcinoma)
Method in brief: as §1

U-2-OS (Osteosarcoma) = tested on: U-2-OS (Osteosarcoma)
Method in brief: as §1

[15] = tested on: VCaP (Prostate Carcinoma)
Method in brief: as §1

In the case of `CS(=O)(=O)CCNCc1ccc(-c2ccc3ncnc(Nc4ccc(OCc5cccc(F)c5)c(Cl)c4)c3c2)o1` [Lapatinib] + NC1(c2ccc(-c3nc4ccn5c(=O)[nH]nc5c4cc3-c3ccccc3)cc2)CCC1 [MK-2206] (first compound max 10 µM, 7x7, partner max 10 µM), the “combination Emax” value [1] is reported as 0.93, the “combination Emax” value [2] is reported as 0.299 and the “combination Emax” value [3] is reported as 0.985. The “combination Emax” value [4] was 0.925, the “combination Emax” value [5] was 0.972 and the “combination Emax” value (FU97 (Gastric Carcinoma)) was 0.795. For the same molecule, the “combination Emax” value [6] was 0.939, the “combination Emax” value [7] was 0.986 and the “combination Emax” value (LN-405 (Glioblastoma)) was 0.789. The “combination Emax” value [8] was 0.462, the “combination Emax” value [9] was 0.898 and the “combination Emax” value [10] was 0.659. For the same molecule, the “combination Emax” value (NCI-H2591 (Mesothelioma)) was 0.418, the “combination Emax” value [11] was 0.533 and the “combination Emax” value (NY (Osteosarcoma)) was 0.246. For the same molecule, the “combination Emax” value [12] was 0.783, the “combination Emax” value [13] was 0.613 and the “combination Emax” value [14] was 0.625. The “combination Emax” value (U-2-OS (Osteosarcoma)) was 0.257 and the “combination Emax” value [15] was 0.478.
